Measurements reported in US20210379026A1, “METHODS FOR TREATING OR PREVENTING SKIN CONDITIONS” (Drexel University, priority 2018, published 2021).
Entries after “also recorded” stand apart in the source; their conditions may differ.

Key:
purpura = assay: Recurrent purpura in a patient under topical treatment; format: in vivo, human; conditions: 0.001%, 4.5 months, one person with recurrent purpura; FIG. 8
Method: (§1) Patients were provided with a proprietary topical formulation of rapamycin (0.001%; equivalent to 10 μM) or a placebo formulation that is identical with the exception that rapamycin was not included. For seborrheic keratosis, patients were instructed to apply the formulation to a localized area of the skin up to 1 cm around the lesion, in the evening before bed. Patients were instructed to apply the cream to the dorsal side of the hand once a day, in the evening before bed.
A person was treated with rapamycin (0.001%) for 4.5 months. The patient was a cancer survivor, multiple round of chemotherapy, recurrent purpura with subsequent scarring. […] Treatment was discontinued at end of trial.

human skin [1] = assay: Histology (Hematoxylin Eosin stain) of dorsal hand skin biopsies after topical cream; format: in vivo; conditions: topical cream 10 μM vs placebo
Method: as §1
(§2) The cream included the following ingredients: Polyoxyethylene (40) stearate, Polyoxyethylene (20) sorbitan monooleate, glycerol monostearate, paraffin, cetyl alcohol, mineral oil, water, propylene glycol, sorbitol, glycerol, methylparaben.
(§3) Patients were provided with a 4 week supply of creams labeled by a number with no indication of whether they contained rapamycin. Patients were instructed to contact the study personnel if any irritation or negative reaction occurred at any time.
Hematoxylin Eosin stain of human skin biopsies from the dorsal hand of a patient following the application of a topical cream either containing rapamycin (10 μM) or placebo are shown in FIG. 2. Histologic evidence of actinic (solar) elastoses is indicated with an arrow.
40× magnified images of human skin biopsies from the dorsal hand of a patient following the application of a topical cream either containing rapamycin (10 μM) or placebo are shown in FIG. 3.
40× magnified images of human skin biopsies from the dorsal hand of a patient following the application of a topical cream either containing rapamycin (10 μM) or placebo are shown in FIG. 4.

human skin [2] = assay: Clinical appearance of the hand after rapamycin cream versus placebo-treated hand; format: in vivo; conditions: 10 μM (0.001%) cream, 6 months, person, placebo on left hand; FIG. 7
Method: as §1, §2, §3
Placebo treated left hand is provided for comparison.

p16 = assay: Nuclear p16 immunohistochemistry of human skin biopsies after topical treatment; format: in vivo; conditions: formulation of 1 micromolar rapamycin, 0.5 cc daily, 240 days, vs vehicle control; FIG. 1
Method: Human skin was treated with a formulation of 1 micromolar rapamycin or an identical formulation containing a vehicle control for 240 days. 0.5 cc of the formulation was applied daily. Skin biopsies (N=8) were processed for immunohistochemistry and nuclear p16 was quantified using the Leica Aperio software system.

cytokeratin 5/6 = assay: Cytokeratin 5/6 staining of dorsal hand skin biopsies after topical cream; format: in vivo, human; conditions: topical cream 10 μM vs placebo, dorsal hand biopsy; FIG. 5 and FIG. 6 (40×)
Method: as §1, §2
Human skin biopsies from the dorsal hand of a patient following the application of a topical cream either containing rapamycin (10 μM) or placebo were stained with antibodies recognizing cytokeratin 5/6 (brown staining), which is a marker for basal cells in the epidermis.

human cells = assay: Protection of cultured cells from UV-induced cell death; format: cell-based
Method: Cells grown in the presence or absence of 1 nM rapamycin were exposed to increasing amounts of UV radiation and cell numbers were determined following 24 hours. […] In FIG. 9B, a representative photograph of the control culture 24 hours following UV is presented. Note the typical hallmarks of apoptosis including rounded floating cells and typical cell blebbing.

[3] = dorsal hand biopsy, 40× images, FIG. 4

CO[C@H]1C[C@@H]2CC[C@@H](C)[C@@](O)(O2)C(=O)C(=O)N2CCCC[C@H]2C(=O)O[C@H]([C@H](C)C[C@@H]2CC[C@@H](O)[C@H](OC)C2)CC(=O)[C@H](C)/C=C(\C)[C@@H](O)[C@@H](OC)C(=O)[C@H](C)C[C@H](C)/C=C/C=C/C=C/1C [rapamycin]
purpura (purpura): significant reduction in purpura | histological markers of aged/damaged skin (actinic (solar) elastoses) (human skin [1]; dorsal hand biopsies, multiple patients, FIG. 2): a reduction in the presence of these histological markers of aged/damaged skin | arrangement of the epithelial layer (human skin [1]; dorsal hand biopsy, 40× images, FIG. 3): more orderly arrangement of the epithelial layer | arrangement of collagen fibers (human skin [1]; [3]): more orderly arrangement of collagen fibers | solar elastoses (human skin [1]; [3]): fewer solar elastoses | clinical improvement of the hand (human skin [2]): clinical improvement | p16 levels in human skin (nuclear p16, immunohistochemistry) (p16): reduced the p16 levels in human skin | location of cytokeratin 5/6 (CK 5/6) staining in the epidermis (cytokeratin 5/6): more focally located in the basal layer of the skin; also recorded: remained restricted to the basal layer | cell death following UV irradiation (percent cell loss) (human cells; 1 nM rapamycin, increasing amounts of UV radiation, cell numbers after 24 hours, P=0.0044, FIG. 9A): reduction in cell death | apoptotic cells in culture after UV (human cells; culture grown in 1 nM rapamycin, 24 hours following UV, FIG. 9C): notable lack of apoptotic cells
